Reference: US20240261351A1, “COMPOSITIONS AND METHODS FOR THE TREATMENT OF BONE AND JOINT DISEASES” (priority 2021, published 2024)
Values joined by “and” are separate entries in the source; they are usually repeats but may differ in a detail not shown here. Equal entries are not always repeated.

What was measured:
[1] = Strontium blood levels by Inductively Coupled Plasma Mass Spectrometry; settings: for maximum strontium blood level: 10-15 g strontium salt daily split morning and evening plus 50 g Aquamin daily as top dressing for 14 days, blood drawn in the morning before feeding, individual horses
Experimental: Approximately 4 months into the trial, strontium blood levels were measured in a small group of horses. […] (Li et al., 2009). To measure strontium blood levels, Inductively Coupled Plasma Mass Spectrometry was used (Eurofins Lab, (Wisconsin USA)).
A group of six horses were utilized and were administered the subject compositions for 14 days total. The compositions were added to morning and evening feed as a top dressing. All subjects received 50 g of “Aquamin” daily given as 25 g in morning and 25 g in evening. Three horses received Strontium ranelate at 10 g, 12 g, and 15 g daily split between the morning and evening. Three horses received Strontium citrate at 10 g, 12 g, and 14 g daily split morning and evening. Blood samples were taken a day 0, 1, 5, 8, 12, and 15 days. Bloods were drawn first thing in the morning before any supplements were fed.

[2] = human, receiving 2 grams per day (AusProtos, 2013); cited from earlier work

Molecule | maximum strontium blood level [1] | strontium blood levels compared with strontium ranelate ([1]; six-horse 14 day study with 50 g Aquamin daily) | strontium blood levels [2] [µmol/L]
strontium citrate | 9.3 µmol/L and 9.5 µmol/L | comparable | 
N#Cc1c(N(CC(=O)[O-])CC(=O)[O-])sc(C(=O)[O-])c1CC(=O)[O-].[Sr+2].[Sr+2] [strontium ranelate, reference compound] | about 7.5 μmole/L |  | 140 to 150
